Measured values from patent US5849729A, “Use of hydrolyzed cocoa butter for percutaneous absorption” (Hershey Foods Corporation, priority 1995, dated 1998).
“And” between values parts separate entries of the source, which are not always exact repeats. Equal values may be shown once. “Also recorded” adds a separate entry of the source. Read-outs that look alike come from different tables or passages of the source.

Assays:
[1] = cited from earlier work
[2] = In-vitro percutaneous absorption of retinoic acid and triamcinolone acetonide from two cocoa butter vehicles (Franz cells, 48 h); details: for Penet (Total Penetration) / % Abs (% Absorbed) / Total Penetration / % Absorbed / total absorption: 48 h; for % Abs (% Absorbed) / % Absorbed / total absorption: percent of applied dose
Description: The objective of this study was to measure the permeation of retinoic acid and triamcinolone acetonide through human skin in-vitro from two cocoa butter vehicles.
Two cocoa butter vehicles supplied by Hershey Foods Corporation were utilized: (1) pure cocoa butter and (2) partially hydrolyzed cocoa butter emulsion. Radioactive [11,12-^3 H] [retinoic acid (NET 920, Lot 2930-067, specific activity 1 mCi/ml) and [6,7-^3 H]-triamcinolone acetonide (NET 470, Lot 2904-170, specific activity 1 mCi/ml) were obtained from Dupont-New England Nuclear Corporation, Boston, Mass.
Each of the two cocoa butter vehicles was spiked separately with ^3 H-retinoic acid and ^3 H-Triamcinolone acetonide to give a total of four radioactive formulations for study. This was done by adding 25 μl (containing 25 μCi) of each tracer solution to approximately 1 gram of each vehicle and mixing with the tip of the dispensing micropipette. The pure cocoa butter vehicle was liquified by holding it under warm tap water prior to spiking. This was not done with the partially hydrolyzed cocoa butter emulsion. Neither formulation was used for three days after spiking to allow for diffusional mixing to take place. Final radioactive concentrations of each formulation were: […]
Human trunk skin without obvious signs of disease was used throughout. It was obtained within 24 hours of death, dermatomed to a thickness of approximately 0.25 mm, cryopreserved and sealed in water vapor-impermeableplastic bags. It was stored at -70° C. until the day of use then thawed by placing the bag in 37° C. water.
Skin from a single donor was cut into multiple sections large enough to fit on 0.8 cm^2 Franz cells. The dermal chamber was filled with isotonic saline, pH 7.4, into which a small magnetic stirring bar was placed. The epidermal chamber was left open to the ambient laboratory environment, approximately 22° C. and 40-60% RH. The cells were placed in a diffusion apparatus in which the dermal receptor solution was stirred magnetically at 600 RPM and its temperature maintained at 37° C.
To assure the integrity of each skin section, its permeability to tritiated water was determined before application of the test formulations. Following a brief (0.5-1 hour) equilibration period, 150 μl ^3 H2 O (specific activity 0.3 μCi/ml) was layered across the top of the skin section so that the entire exposed surface was covered. After 5 minutes the aqueous layer was removed and the surface of the skin carefully blotted dry. At t=0.5 hour the saline receptor phase was removed and analyzed for radioactive content by liquid scintillation counting. Skin specimens in which absorption of ^3 H2 O was less than 1.25 μl were considered acceptable.
Subsequently, each test formulation was applied at a target dose of 10 mg (cream) or 10 μl (butter). The cream formulation (partially hydrolyzed cocoa butter emulsion) was applied from the smooth, rounded-tip of a glass rod, the exact amount determined by weighing the rod before and after application. The butter formulation (pure cocoa butter) was first liquified under warm tap water, allowed to cool to room temperature, then applied with a 10 μl positive displacement micropipette prior to resolidifying. At 4, 8, 12, 24, 36 and 48 hours the receptor solution was removed in its entirety, replaced with fresh solution, and a 1 ml aliquot taken and assayed for radioactive content by liquid scintillation counting.
A 1 ml aliquot of each receptor sample containing ^3 H2 O, ^3 H-retinoic acid, or ^3 H-triamcinolone acetonide was placed in a 7 ml glass scintillation vial and gelled by the addition of 5 ml Opti-Fluor (Packard Instrument Co., Meriden, Conn.). These were counted in a Packard Tri-Carb Model 1900CA Liquid scintillation Analyzer equipped with internal standard and automatic quench correction.

[3] = butter (pure cocoa butter), individual skin sections, listed as TRIAMINOLONE ACETONIDE
[4] = butter, average of three donors
[5] = cream (partially hydrolyzed cocoa butter emulsion), individual skin sections, listed as TRIAMINOLONE ACETONIDE

CN(C)C=O [Dimethylformamide]
side effects ([1]; topical use, in words): a sensation of burning and erythema on the skin

C[S+](C)[O-] [dimethyl sulfoxide]
side effects ([1]; topical use, in words): a foul taste and body odor, burning and erythema on the skin; a reduction in the relucency of the lens cortex and tissue necrosis

CNC(C)=O [methylacetamide]
side effects ([1]; in vivo): a sensation of burning and erythema on the skin

CC1(C)O[C@@H]2C[C@H]3[C@@H]4CCC5=CC(=O)C=C[C@]5(C)[C@@]4(F)[C@@H](O)C[C@]3(C)[C@]2(C(=O)CO)O1 [triamcinolone acetonide]
rate of absorption profile / flux ([2]; both cocoa butter formulations, in words): absorption continues to increase at a slow rate; also recorded: relatively high flux rates | Penet (Total Penetration) [2, 3]: 524.71 and 252.43 and 268.51 and 390.54 and 1505.05 and 2037.47 and 2111.25 and 1993.70 and 1506.22 and 770.57 and 821.16 and 931.82 | % Abs (% Absorbed) [2, 3]: 5.24% and 2.52% and 2.86% and 3.90% and 15.04% and 20.36% and 21.10% and 19.92% and 15.05% and 7.70% and 8.21% and 9.31% | Rate of absorption, R1 ([2]; butter (pure cocoa butter), sample R1, mid-t 2 h, individual skin sections, listed as TRIAMINOLONE ACETONIDE): 4.39 ng/cm^2 /hr and 1.60 ng/cm^2 /hr and 4.85 ng/cm^2 /hr and 2.94 ng/cm^2 /hr and 5.03 ng/cm^2 /hr and 5.86 ng/cm^2 /hr and 13.93 ng/cm^2 /hr and 14.30 ng/cm^2 /hr and 10.13 ng/cm^2 /hr and 6.97 ng/cm^2 /hr and 3.85 ng/cm^2 /hr and 4.31 ng/cm^2 /hr | Rate of absorption, R3 ([2]; butter (pure cocoa butter), sample R3, mid-t 10 h, individual skin sections, listed as TRIAMINOLONE ACETONIDE): 4.10 ng/cm^2 /hr and 1.98 ng/cm^2 /hr and 3.21 ng/cm^2 /hr and 1.85 ng/cm^2 /hr and 39.10 ng/cm^2 /hr and 54.60 ng/cm^2 /hr and 49.52 ng/cm^2 /hr and 41.58 ng/cm^2 /hr and 31.25 ng/cm^2 /hr and 11.42 ng/cm^2 /hr and 13.09 ng/cm^2 /hr and 17.61 ng/cm^2 /hr | Rate of absorption, R4 ([2]; butter (pure cocoa butter), sample R4, mid-t 18 h, individual skin sections, listed as TRIAMINOLONE ACETONIDE): 10.64 ng/cm^2 /hr and 4.64 ng/cm^2 /hr and 5.65 ng/cm^2 /hr and 6.96 ng/cm^2 /hr and 41.81 ng/cm^2 /hr and 61.91 ng/cm^2 /hr and 60.58 ng/cm^2 /hr and 63.34 ng/cm^2 /hr and 42.50 ng/cm^2 /hr and 16.59 ng/cm^2 /hr and 19.25 ng/cm^2 /hr and 21.60 ng/cm^2 /hr | Rate of absorption, R5 ([2]; butter (pure cocoa butter), sample R5, mid-t 30 h, individual skin sections, listed as TRIAMINOLONE ACETONIDE): 16.77 ng/cm^2 /hr and 7.47 ng/cm^2 /hr and 7.89 ng/cm^2 /hr and 11.61 ng/cm^2 /hr and 44.77 ng/cm^2 /hr and 55.96 ng/cm^2 /hr and 68.48 ng/cm^2 /hr and 56.67 ng/cm^2 /hr and 44.03 ng/cm^2 /hr and 24.96 ng/cm^2 /hr and 28.20 ng/cm^2 /hr and 30.50 ng/cm^2 /hr | Rate of absorption, R6 ([2]; butter (pure cocoa butter), sample R6, mid-t 42 h, individual skin sections, listed as TRIAMINOLONE ACETONIDE): 23.72 ng/cm^2 /hr and 12.43 ng/cm^2 /hr and 12.16 ng/cm^2 /hr and 19.97 ng/cm^2 /hr and 48.08 ng/cm^2 /hr and 65.20 ng/cm^2 /hr and 60.71 ng/cm^2 /hr and 62.32 ng/cm^2 /hr and 49.91 ng/cm^2 /hr and 30.50 ng/cm^2 /hr and 30.09 ng/cm^2 /hr and 34.64 ng/cm^2 /hr | Total Penetration [2, 4]: 1094.29 | Rate of absorption, R1 ([2]; butter, R1, mid-t 2 h, average of three donors): 6.52 ng/cm^2 /hr | Rate of absorption, R3 ([2]; butter, R3, mid-t 10 h, average of three donors): 22.44 ng/cm^2 /hr | Rate of absorption, R4 ([2]; butter, R4, mid-t 18 h, average of three donors): 29.62 ng/cm^2 /hr | Rate of absorption, R5 ([2]; butter, R5, mid-t 30 h, average of three donors): 33.11 ng/cm^2 /hr | Rate of absorption, R6 ([2]; butter, R6, mid-t 42 h, average of three donors): 37.48 ng/cm^2 /hr | % Absorbed / total absorption [2, 4]: 10.9% | % Absorbed / total absorption ([2]; butter, average of three donors, listed as Triamcinalone): 10.93% | rate of absorption, cream versus butter ([2]; comparison of both formulations, in words): The cream formulation gives a slightly higher rate of absorption than the butter | Penet (Total Penetration) [2, 5]: 254.48 and 668.59 and 249.45 and 118.36 and 2508.36 and 2312.05 and 2871.31 and 2499.51 and 947.51 and 935.57 and 1068.65 and 1271.22 | % Abs (% Absorbed) [2, 5]: 2.49% and 6.22% and 2.57% and 1.23% and 19.85% and 17.85% and 23.91% and 21.77% and 9.37% and 8.49% and 9.22% and 13.72% | Rate of absorption, R1 ([2]; cream (partially hydrolyzed cocoa butter emulsion), sample R1, mid-t 2 h, individual skin sections, listed as TRIAMINOLONE ACETONIDE): 3.04 ng/cm^2 /hr and 1.67 ng/cm^2 /hr and 5.26 ng/cm^2 /hr and 1.52 ng/cm^2 /hr and 18.29 ng/cm^2 /hr and 17.50 ng/cm^2 /hr and 18.71 ng/cm^2 /hr and 12.90 ng/cm^2 /hr and 4.30 ng/cm^2 /hr and 2.33 ng/cm^2 /hr and 15.97 ng/cm^2 /hr and 3.83 ng/cm^2 /hr | Rate of absorption, R3 ([2]; cream (partially hydrolyzed cocoa butter emulsion), sample R3, mid-t 10 h, individual skin sections, listed as TRIAMINOLONE ACETONIDE): 3.36 ng/cm^2 /hr and 3.23 ng/cm^2 /hr and 5.64 ng/cm^2 /hr and 0.96 ng/cm^2 /hr and 59.17 ng/cm^2 /hr and 56.60 ng/cm^2 /hr and 68.40 ng/cm^2 /hr and 55.15 ng/cm^2 /hr and 21.00 ng/cm^2 /hr and 18.75 ng/cm^2 /hr and 20.37 ng/cm^2 /hr and 22.71 ng/cm^2 /hr | Rate of absorption, R4 ([2]; cream (partially hydrolyzed cocoa butter emulsion), sample R4, mid-t 18 h, individual skin sections, listed as TRIAMINOLONE ACETONIDE): 5.74 ng/cm^2 /hr and 12.44 ng/cm^2 /hr and 6.13 ng/cm^2 /hr and 2.07 ng/cm^2 /hr and 63.18 ng/cm^2 /hr and 60.43 ng/cm^2 /hr and 79.96 ng/cm^2 /hr and 72.84 ng/cm^2 /hr and 26.40 ng/cm^2 /hr and 25.54 ng/cm^2 /hr and 27.04 ng/cm^2 /hr and 31.56 ng/cm^2 /hr | Rate of absorption, R5 ([2]; cream (partially hydrolyzed cocoa butter emulsion), sample R5, mid-t 30 h, individual skin sections, listed as TRIAMINOLONE ACETONIDE): 7.24 ng/cm^2 /hr and 17.67 ng/cm^2 /hr and 6.59 ng/cm^2 /hr and 3.75 ng/cm^2 /hr and 73.13 ng/cm^2 /hr and 69.96 ng/cm^2 /hr and 81.15 ng/cm^2 /hr and 70.51 ng/cm^2 /hr and 30.37 ng/cm^2 /hr and 30.85 ng/cm^2 /hr and 35.59 ng/cm^2 /hr and 41.22 ng/cm^2 /hr | Rate of absorption, R6 ([2]; cream (partially hydrolyzed cocoa butter emulsion), sample R6, mid-t 42 h, individual skin sections, listed as TRIAMINOLONE ACETONIDE): 10.49 ng/cm^2 /hr and 37.33 ng/cm^2 /hr and 7.93 ng/cm^2 /hr and 5.35 ng/cm^2 /hr and 83.06 ng/cm^2 /hr and 70.37 ng/cm^2 /hr and 91.88 ng/cm^2 /hr and 81.89 ng/cm^2 /hr and 28.80 ng/cm^2 /hr and 30.03 ng/cm^2 /hr and 32.01 ng/cm^2 /hr and 46.16 ng/cm^2 /hr | Total Penetration ([2]; cream, average of three donors): 1308.76 | % Absorbed / total absorption ([2]; cream, average of three donors): 11.4% | % Absorbed / total absorption ([2]; cream, average of three donors, listed as Triamcinalone): 11.39% | difference between partially hydrolyzed cocoa butter emulsion and pure cocoa butter as delivery vehicle ([2]; in words): no appreciable difference | average absorption ([2]; with cocoa butter and partially hydrolyzed cocoa butter emulsion (both vehicles)): about 11%
